One may read the Ki as a measure of affinity in units of concentration, obtained from inhibition or displacement.

The assay concerns the target T1, recombinant human beta tryptase (Homo sapiens, UniProt P20231).
T1 construct: made in house; host or cells: yeast cells
Put plainly: beta-Tryptase inhibition, chromogenic enzyme assay (substrate S2366, read at 405 nm). The assay is classed as biochemical. An excerpt: Inhibition of this catalytic activity may be measured by the in vitro enzyme assay and the cellular assay.
Tryptase inhibition activity is confirmed using either isolated human lung tryptase or recombinant human beta tryptase expressed in yeast cells. Essentially equivalent results are obtained using isolated native enzyme or the expressed enzyme. The assay procedure employs a 96 well microplate (Costar 3590) using L-pyroglutamyl-L-prolyl-L-arginine-para-nitroanilide (S2366: Quadratech) as substrate (essentially as described by McEuen et. al. Biochem Pharm, 1996, 52, pages 331-340). Assays are performed at room temperature using 0.5 mM substrate (2×Km) and the microplate is read on a microplate reader (Beckman Biomek Plate reader) at 405 nm wavelength.
Materials and Methods for Tryptase primary screen (Chromogenic assay)
S2366 (Stock solutions of 2.5 mM).
Purified recombinant beta Tryptase Stocks of 310 μg/mL. Protocol (Single point determination) • Add 60 μL of diluted substrate (final concentration of 500 μM in assay buffer) to each well • Add compound in duplicates, final concentration of 20 volume 20 • Add enzyme at a final concentration of 50 ng/mL in a volume of 20 • Total volume for each well is 100 • Agitate briefly to mix and incubate at room temp in the dark for 30 minutes • Read absorbencies at […] Each plate has the following controls: • Totals: 60 μL of substrate, 20 μL of buffer (with 0.2% final concentration of DMSO), • 20 μL of enzyme Non-specific: 60 μL of substrate, 40 μL of buffer (with 0.2% DMSO) Totals: 60 μL of substrate, 20 μL of buffer (No DMSO), 20 μL of enzyme Non-specific: 60 μL of substrate, 40 μL of buffer (No DMSO) Protocol (IC50 and Ki determination)
The protocol is essentially the same as above except that the compound is added in duplicates at the following final concentrations: 0.01, 0.03, 0.1, 0.3, 1, 3, 10 μM (All dilutions carried out manually). For every assay, whether single point or IC50 determination, a standard compound is used to derive IC50 for comparison. From the IC50 value, the Ki can be calculated using the following formula: Ki=IC50/(1+[Substrate]/Km).

[1] abbreviates: Tryptase Ki (nM), Ki calculated from IC50: Ki=IC50/(1+[Substrate]/Km), 0.5 mM substrate, room temperature.
The mark [2] stands for this setting: Ki calculated from IC50: Ki=IC50/(1+[Substrate]/Km), 0.5 mM substrate, room temperature, read-out: Tryptase Ki.

Where a name gives a salt, the structure may show the parent alone. Read-outs that look alike come from different tables or passages of the source.

T1 sequence (P20231 31-275): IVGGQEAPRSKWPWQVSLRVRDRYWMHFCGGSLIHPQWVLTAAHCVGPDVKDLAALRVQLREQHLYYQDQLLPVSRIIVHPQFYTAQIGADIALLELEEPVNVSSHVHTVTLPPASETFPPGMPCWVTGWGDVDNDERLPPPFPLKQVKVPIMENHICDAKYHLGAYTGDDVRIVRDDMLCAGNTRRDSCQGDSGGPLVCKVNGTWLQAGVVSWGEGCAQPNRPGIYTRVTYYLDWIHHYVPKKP

For `COCCn1cc(C(=O)N2CCC(c3cc(CN)ccc3OCC(N)=O)CC2)c2cccc(OC(F)(F)F)c21` [Example 32, 2-(4-Aminomethyl-2-{1-[1-(2-methoxy-ethyl)-7-trifluoromethoxy-1H-indole-3-carbonyl]-piperidin-4-yl}-phenoxy)-acetamide hydrochloride], the Ki under setting [1] is 1280 nM. Still for that read-out and setting: the result for `Cc1cccc2c(C(=O)N3CCC(c4cc(CN)ccc4F)CC3)cn(CCC3CCCCN3C)c12` (centres unmarked) [Example 8, [4-(5-Aminomethyl-2-fluoro-phenyl)-piperidin-1-yl]-{7-methyl-1-[2-(1-methyl-piperidin-2-yl)-ethyl]-1H-indol-3-yl}-methanone hydrochloride] reads 35 nM; that for `COCCn1cc(C(=O)N2CCC(c3cc(CN)ccc3F)CC2)c2c(-c3cccc(O)c3)cccc21` [Example 72, [4-(5-Aminomethyl-2-fluoro-phenyl)-piperidin-1-yl]-[4-(3-hydroxy-phenyl)-1-(2-methoxy-ethyl)-1H-indol-3-yl]-methanone hydrochloride], 13 nM; that for `NCc1ccc(F)c(C2CCN(C(=O)c3cn(CCc4ccncc4)c4ccccc34)CC2)c1` [Example 35, [4-(5-Aminomethyl-2-fluoro-phenyl)-piperidin-1-yl]-[1-(2-pyridin-4-yl-ethyl)-1H-indol-3-yl]-methanone dihydrochloride], 8.6 nM. Turning to `COCCn1cc(C(=O)N2CCC(c3cc(CN)ccc3F)CC2)c2c(OC(F)(F)F)cccc21` [Example 54, [4-(5-Aminomethyl-2-fluoro-phenyl)-piperidin-1-yl]-[1-(2-methoxy-ethyl)-4-trifluoromethoxy-1H-indol-3-yl]-methanone hydrochloride], the Ki under setting [1] is 96 nM. As to `CNC(=O)COc1ccc(CN)cc1C1CCN(C(=O)c2cn(CCOC)c3c(C)cccc23)CC1` [Example 26, 2-(4-Aminomethyl-2-{1-[1-(2-methoxy-ethyl)-7-methyl-1H-indole-3-carbonyl]-piperidin-4-yl}-phenoxy)-N-methyl-acetamide hydrochloride], under setting [1], the Ki is 306 nM.

Take `COCCn1cc(C(=O)N2CCC(c3cc(CN)ccc3F)CC2)c2c(-c3ccncc3)cccc21` [Example 56, [4-(5-Aminomethyl-2-fluoro-phenyl)-piperidin-1-yl]-[1-(2-methoxy-ethyl)-4-pyridin-4-yl-1H-indol-3-yl]-methanone]: the Ki under setting [2] was 9 nM.

Consider `COCCn1cc(C(=O)N2CCC(c3cc(CN)ccc3F)CC2)c2c(NS(=O)(=O)c3cn(C)cn3)cccc21` [Example 105, 1-Methyl-1H-imidazole-4-sulfonic acid [3-[4-(5-aminomethyl-2-fluoro-phenyl)-piperidine-1-carbonyl]-1-(2-methoxy-ethyl)-1H-indol-4-yl]-amide hydrochloride], for which the Ki under setting [1] was 100 nM. Regarding `COCCn1cc(C(=O)N2CCC(c3cc(CN)ccc3F)CC2)c2c(-c3cncc(C)c3)cccc21` [Example 82, [4-(5-Aminomethyl-2-fluoro-phenyl)-piperidin-1-yl]-[1-(2-methoxy-ethyl)-4-(5-methyl-pyridin-3-yl)-1H-indol-3-yl]-methanone dihydrochloride], the Ki under setting [2] is 6 nM. Turning to `COCCn1cc(C(=O)N2CCC(c3cc(CN)ccn3)CC2)c2cccc(C)c21` [Example 119, (4-Aminomethyl-3′,4′,5′,6′-tetrahydro-2′H-[2,4′]bipyridinyl-1′-yl)-[1-(2-methoxy-ethyl)-7-methyl-1H-indol-3-yl]-methanone hydrochloride], under setting [1], the Ki was 180 nM. With `COCCn1cc(C(=O)N2CCC(c3cc(CN)ccc3F)CC2)c2c(NC(=O)C3CCOCC3)cccc21` [Example 95, Tetrahydro-pyran-4-carboxylic acid [3-[4-(5-aminomethyl-2-fluoro-phenyl)-piperidine-1-carbonyl]-1-(2-methoxy-ethyl)-1H-indol-4-yl]-amide hydrochloride], the Ki under setting [1] is 44 nM; the Ki (Tryptase Ki (nM), additional value in parentheses tagged "719D" (code not explained)) was 47 nM; the Ki (Tryptase Ki (nM), additional value in parentheses tagged "8923" (code not explained)) turned out to be 15 nM. For `COCCn1cc(C(=O)N2CCC(c3cc(CN)ccc3F)CC2)c2c(C)cccc21` [Example 44, [4-(5-Aminomethyl-2-fluoro-phenyl)-piperidin-1-yl]-[1-(2-methoxy-ethyl)-4-methyl-1H-indol-3-yl]-methanone hydrochloride], under setting [1], the Ki was 51 nM. Regarding `COCCn1cc(C(=O)N2CCC(c3cc(CN)ccc3OCC(=O)N(C)C)CC2)c2cccc(OC(F)(F)F)c21` [Example 29, 2-(4-Aminomethyl-2-{1-[1-(2-methoxy-ethyl)-7-trifluoromethoxy-1H-indole-3-carbonyl]-piperidin-4-yl}-phenoxy)-N,N-dimethyl-acetamide hydrochloride], the Ki under setting [1] was 331 nM.

As to `COCCn1cc(C(=O)N2CCC(c3cc(CN)ccc3F)CC2)c2c(NC(=O)C3CC4CCC3C4)cccc21` (centres unmarked) [Example 98, Bicyclo[2.2.1]heptane-2-carboxylic acid [3-[4-(5-aminomethyl-2-fluoro-phenyl)-piperidine-1-carbonyl]-1-(2-methoxy-ethyl)-1H-indol-4-yl]-amide hydrochloride], the Ki under setting [1] is 147 nM. Regarding `COCCn1cc(C(=O)N2CCC(c3cc(CN)ccc3C(F)(F)F)CC2)c2cccc(C)c21` [Example 110, [4-(5-Aminomethyl-2-trifluoromethyl-phenyl)-piperidin-1-yl]-[1-(2-methoxy-ethyl)-7-methyl-1H-indol-3-yl]-methanone hydrochloride], the Ki under setting [1] is 1260 nM. Same read-out and setting: the result for `NCc1ccc(F)c(C2CCN(C(=O)c3cn(CCOC(F)(F)F)c4cccc(-c5ccccc5)c34)CC2)c1` [Example 80, [4-(5-Aminomethyl-2-fluoro-phenyl)-piperidin-1-yl]-[4-phenyl-1-(2-trifluoromethoxy-ethyl)-1H-indol-3-yl]-methanone hydrochloride] reads 961 nM; that for `COCCn1cc(C(=O)N2CCC(c3cc(CN)ccc3F)CC2)c2c(NC(=O)c3cccc4c3OCC4)cccc21` [Example 120, 2,3-Dihydro-benzofuran-7-carboxylic acid [3-[4-(5-aminomethyl-2-fluoro-phenyl)-piperidine-1-carbonyl]-1-(2-methoxy-ethyl)-1H-indol-4-yl]-amide hydrochloride], 3 nM.

With `COCCn1cc(C(=O)N2CCC(c3cc(CN)ccc3F)CC2)c2c(NC(C)=O)cccc21` [Example 96, N-[3-[4-(5-Aminomethyl-2-fluoro-phenyl)-piperidine-1-carbonyl]-1-(2-methoxy-ethyl)-1H-indol-4-yl]-acetamide hydrochloride], the Ki under setting [1] is 18 nM. Take `CNC(=O)COc1ccc(CN)cc1C1CCN(C(=O)c2cn(CCOC)c3c(OC(F)(F)F)cccc23)CC1` [Example 28, 2-(4-Aminomethyl-2-{1-[1-(2-methoxy-ethyl)-7-trifluoromethoxy-1H-indole-3-carbonyl]-piperidin-4-yl}-phenoxy)-N-methyl-acetamide hydrochloride]: under setting [1], the Ki was 538 nM. As for `COCCn1cc(C(=O)N2CCC(c3cc(CN)ccc3F)CC2)c2cccc(C#N)c21` [Example 18, 3-[4-(5-Aminomethyl-2-fluoro-phenyl)-piperidine-1-carbonyl]-1-(2-methoxy-ethyl)-1H-indole-7-carbonitrile], the Ki under setting [1] was 40 nM. Still for that read-out and setting: the result for `CCCCOc1ccc(CN)cc1C1CCN(C(=O)c2cn(CCOC)c3c(C)cccc23)CC1` [Example 114, [4-(5-Aminomethyl-2-butoxy-phenyl)-piperidin-1-yl]-[1-(2-methoxy-ethyl)-7-methyl-1H-indol-3-yl]-methanone hydrochloride] reads 526 nM; that for `COCCn1cc(C(=O)N2CCC(c3cc(CN)ccc3F)CC2)c2c(N(C)C)cccc21` [Example 77, [4-(5-Aminomethyl-2-fluoro-phenyl)-piperidin-1-yl]-[4-dimethylamino-1-(2-methoxy-ethyl)-1H-indol-3-yl]-methanone hydrochloride], 57 nM; that for `NCc1ccc(F)c(C2CCN(C(=O)c3cn(CCOC(F)(F)F)c4cccc(-c5cncnc5)c34)CC2)c1` [Example 92, [4-(5-Aminomethyl-2-fluoro-phenyl)-piperidin-1-yl]-[4-pyrimidin-5-yl-1-(2-trifluoromethoxy-ethyl)-1H-indol-3-yl]-methanone dihydrochloride], 90 nM. Consider `COCCn1cc(C(=O)N2CCC(c3cc(CN)ccc3F)CC2)c2c(CCC(C)(C)O)cccc21` [Example 55, [4-(5-Aminomethyl-2-fluoro-phenyl)-piperidin-1-yl]-[4-(3-hydroxy-3-methyl-butyl)-1-(2-methoxy-ethyl)-1H-indol-3-yl]-methanone hydrochloride], for which the Ki under setting [1] is 72 nM.
